Source: paper PMC9821293, “Anammox Bacterial S-Adenosyl-L-Methionine Dependent Methyltransferase Crystal Structure and Its Interaction with Acyl Carrier Proteins” (International Journal of Molecular Sciences, 2023)

Target: T1, AmxMT1 (Candidatus Brocadia fulgida, UniProt A0A0M2USF2)
T1 construct: gene BROFUL_02287; five N-terminal residues removed; C-terminal TEV site and 6xHis tag, His tag cleaved; codon-optimised, pET28b, E. coli C43(DE3) with pGro7; one molecule in the asymmetric unit
T1 sequence (A0A0M2USF2 6-354): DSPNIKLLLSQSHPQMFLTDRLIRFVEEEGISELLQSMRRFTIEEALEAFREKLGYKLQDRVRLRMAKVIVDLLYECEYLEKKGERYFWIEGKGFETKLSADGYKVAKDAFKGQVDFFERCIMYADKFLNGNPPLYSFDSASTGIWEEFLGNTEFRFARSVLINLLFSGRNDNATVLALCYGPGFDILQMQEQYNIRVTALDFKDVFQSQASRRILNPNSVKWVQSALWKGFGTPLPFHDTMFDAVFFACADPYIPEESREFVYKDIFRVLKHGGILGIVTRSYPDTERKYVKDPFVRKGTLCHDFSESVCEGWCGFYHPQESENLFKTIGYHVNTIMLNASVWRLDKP
Experiment: X-ray crystal structure of the complex (SAD phasing, molecular replacement)
Assay type: binding
Settings: SAM (2.25 mM) added for crystallization, SAH found in the crystal; 5 mM DTT; HEPES pH 7.0, PEG 2000, 20 °C; cosubstrate pocket between core domain and inserted helix

Nc1ncnc2c1ncn2[C@@H]1O[C@H](CSCC[C@H](N)C(=O)O)[C@@H](O)[C@H]1O [SAH]
X-ray crystal structure of the complex (SAD phasing, molecular replacement): S-adenosyl-L-homocysteine (SAH) is located in the pocket between the core domain and inserted helix
